Data on three compounds can be found in PMC6152134, “Synthesis and In Vitro Anticancer Activity of Novel Dehydroabietic Acid-Based Acylhydrazones” (Molecules : A Journal of Synthetic Chemistry and Natural …, 2017).

SMILES strings stand for the structures.

In data set [1] the test system is HeLa (epithelial cervical) human carcinoma cell line. The data set can be described thus: MTT cytotoxicity assay, HeLa cells. Format: cell-based. The conditions noted are these: Homo sapiens, HeLa, 48 h, 48 h exposure. As to the method:
(§1) Compounds 4a–x were evaluated for their cytotoxic activity in vitro against the human cancer cell lines, CNE-2, HepG2, HeLa, and BEL-7402 by using a 3-(4,5-dimethylthiazol-2-yl)-2,5-diphenyl tetrazolium bromide (MTT) colorimetric assay. Cisplatin was included in the experiments as a positive control, and the IC50 of DHA is also presented to compare the anticancer activities. The calculated IC50 values were reported differently according to the different cancer cells.
(§2) The CNE-2, HepG2, HeLa, and BEL-7402 cell lines used in this work were all purchased from the Institute of Biochemistry and Cell Biology, China Academy of Sciences. All were supplemented with 10% heat-inactivated fetal bovine serum in a humidified atmosphere of 5% CO2/95% air at 37 °C. In order to investigate the potential of compounds 4, cisplatin, a commercial classical anticancer drug was used as a reference drug. CNE-2, HepG2, HeLa, and BEL-7402 cells were seeded into 96-well microculture plates and allowed to adhere for 24 h, respectively. After cells were exposed to compounds at concentrations from 100 to 0.1 μM for 48 h, medium was aspirated and replenished with complete medium. IC50 values was evaluated by MTT tetrazolium dye assay. All the tests were repeated in at least three independent experiments. The IC50 values of the compounds were calculated using SPSS Version 10 software (IBM, New York, NY, USA), which defined the IC50 value as the concentration required to inhibit cell growth by 50%.

Data set [2] relates to CNE-2 (nasopharynx) human carcinoma cell line. The data set can be described thus: MTT cytotoxicity assay, CNE-2 cells. Format: cell-based. As to conditions: Homo sapiens, 48 h exposure. On the procedure:
as §1, §2

The subject of data set [3] is HepG2 (liver) human carcinoma cell line. The data set can be described thus: MTT cytotoxicity assay, HepG2 cells. Format: cell-based. As to conditions: Homo sapiens, HepG2, 48 h, 48 h exposure. As to the method:
as §1, §2

The subject of data set [4] is BEL-7402 (liver) human carcinoma cell line. Nature of the data set: MTT cytotoxicity assay, BEL-7402 cells. The conditions noted are these: Homo sapiens, 48 h exposure. Format: cell-based. As to the method:
as §1, §2

Data set [5] has as its system HL-7702 normal human liver cell line. The data set can be described thus: MTT cytotoxicity assay, HL-7702 normal liver cells. It is filed as cell-based. As to conditions: L02, normal human liver cell HL-7702.
Data set [6] deals with human promyelocytic leukemic cells (HL-60). More on the design: method as in PMID 20884091. The conditions noted are these: read-out: IC50 against HL-60; cited from earlier work.

In the case of `CC(C)c1ccc2c(c1)CCC1C(C)(C(=O)OCC(=O)NN=Cc3cc(F)cc(F)c3)CCCC21C` (centres unmarked) [4w], the melting point is 182.6 to 186.6 °C. For the same compound, in data set [1], half-maximal inhibition (IC50) was put at 2.21 ± 0.04 µM. The IC50 in data set [2] stood at 15.4 ± 0.21 µM. Moreover, the IC50 in data set [3] was found to be 12.07 ± 0.07 µM. This compound also gave an IC50 in data set [4] of 14.5 ± 0.22 µM. In addition, in data set [5], the IC50 was 66.1 ± 1.84 µM.
With `O=C(N/N=C/c1ccccc1O)c1ccc(-c2ccc(F)cc2F)o1` [(E)-2-hydroxybenzaldehyde-5-(2,4-difluorophenyl)-2-furoyl hydrazone], the IC50 in data set [6] is 16.4 µM.
With `COc1cccc2c1C(=O)c1c(O)c3c(c(O)c1C2=O)C[C@@](O)(C(=O)CO)C[C@@H]3O[C@H]1C[C@H](N)[C@H](O)[C@H](C)O1` [doxorubicin], in data set [6], the concentration for half-maximal inhibition (IC50) is 53.3 µM.
